# Measurements published in patent US20230114153A1, “IMIDAZOLYL THIOPEHENE SULFONYL CARBAMATES FOR USE IN THE TREATMENT OF DISEASES ASSOCIATED WITH ANGIOTENSIN II” (Vicore Pharma AB, priority 2020, published 2023).
# Key:
# [1] = target: T1, CYP2C8 (Homo sapiens, UniProt P10632); assay: CYP inhibition in human liver microsomes, CYP2C8; assay type: in vitro ADME; conditions: probe paclitaxel and amodiaquine, substrates paclitaxel and amodiaquine, read-out: CYP2C8 Inh %
# T1 construct: incubated with human liver microsomes; tissue Eurofins (contract protocol) ITEMG232; host or cells: human liver microsomes
# T1 sequence (P10632 1-490): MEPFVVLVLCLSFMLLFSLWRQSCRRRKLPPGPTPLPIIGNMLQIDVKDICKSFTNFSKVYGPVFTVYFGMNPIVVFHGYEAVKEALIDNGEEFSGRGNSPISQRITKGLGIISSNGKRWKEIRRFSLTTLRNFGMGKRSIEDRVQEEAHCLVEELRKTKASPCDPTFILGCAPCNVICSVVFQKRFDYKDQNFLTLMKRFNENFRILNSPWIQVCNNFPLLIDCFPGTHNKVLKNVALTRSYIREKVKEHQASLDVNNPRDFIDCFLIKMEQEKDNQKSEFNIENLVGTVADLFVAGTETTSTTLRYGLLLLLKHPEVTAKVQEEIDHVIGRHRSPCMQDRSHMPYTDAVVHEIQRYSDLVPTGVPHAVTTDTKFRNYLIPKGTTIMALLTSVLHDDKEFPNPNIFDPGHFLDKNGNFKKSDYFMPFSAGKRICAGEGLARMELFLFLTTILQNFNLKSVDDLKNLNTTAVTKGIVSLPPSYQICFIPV
# Procedure: (§1) The following substrates were used; CYP1A phenacetin, CYP2B6 bupropion, CYP2C8 paclitaxel and amodiaquine, CYP2C9 diclofenac, CYP2C19 omeprazole, CYP2D6 dextromethorphan, CYP3A midazolam and testosterone. At the end of the incubation, the formation of metabolite was monitored by HPLC-MS/MS as the peak area response.
# [2] = target: T2, human recombinant AT2 receptor (Homo sapiens, UniProt P50052); assay: Binding to human recombinant AT2 receptor, radiometric scintillation assay (Eurofins ITEM26); conditions: ligand 125I CGP 42112A, 2-4 h at 37° C., tested at 1, 10, 100 and 1000 nM
# T2 construct: Eurofins (contract protocol) ITEM26
# T2 sequence (P50052 1-363): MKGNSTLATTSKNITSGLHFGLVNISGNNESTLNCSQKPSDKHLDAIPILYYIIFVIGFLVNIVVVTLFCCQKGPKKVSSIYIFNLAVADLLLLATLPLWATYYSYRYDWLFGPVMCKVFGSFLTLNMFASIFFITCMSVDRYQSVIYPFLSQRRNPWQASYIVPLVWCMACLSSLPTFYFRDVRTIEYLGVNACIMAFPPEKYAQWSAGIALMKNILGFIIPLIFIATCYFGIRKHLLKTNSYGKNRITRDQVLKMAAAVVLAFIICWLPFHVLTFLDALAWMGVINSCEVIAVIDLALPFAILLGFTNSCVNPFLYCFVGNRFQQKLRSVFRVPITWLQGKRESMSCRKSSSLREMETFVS
# [3] = target: T3, CYP3A4 (Homo sapiens, UniProt P08684); assay: CYP inhibition in human liver microsomes, CYP3A4 (midazolam); assay type: in vitro ADME; conditions: probe midazolam, substrate midazolam, read-out: CYP3A4 midazolam Inh %
# T3 construct: incubated with human liver microsomes; tissue Eurofins (contract protocol) ITEMG232; host or cells: human liver microsomes
# Procedure: as §1
# [4] = target: T4, CYP1A (Homo sapiens, UniProt P05177); assay: CYP inhibition in human liver microsomes, CYP1A; assay type: in vitro ADME; conditions: probe phenacetin, substrate phenacetin, read-out: CYP1A Inh %
# T4 construct: incubated with human liver microsomes; tissue Eurofins (contract protocol) ITEMG232; host or cells: human liver microsomes
# T4 sequence (P05177 1-516): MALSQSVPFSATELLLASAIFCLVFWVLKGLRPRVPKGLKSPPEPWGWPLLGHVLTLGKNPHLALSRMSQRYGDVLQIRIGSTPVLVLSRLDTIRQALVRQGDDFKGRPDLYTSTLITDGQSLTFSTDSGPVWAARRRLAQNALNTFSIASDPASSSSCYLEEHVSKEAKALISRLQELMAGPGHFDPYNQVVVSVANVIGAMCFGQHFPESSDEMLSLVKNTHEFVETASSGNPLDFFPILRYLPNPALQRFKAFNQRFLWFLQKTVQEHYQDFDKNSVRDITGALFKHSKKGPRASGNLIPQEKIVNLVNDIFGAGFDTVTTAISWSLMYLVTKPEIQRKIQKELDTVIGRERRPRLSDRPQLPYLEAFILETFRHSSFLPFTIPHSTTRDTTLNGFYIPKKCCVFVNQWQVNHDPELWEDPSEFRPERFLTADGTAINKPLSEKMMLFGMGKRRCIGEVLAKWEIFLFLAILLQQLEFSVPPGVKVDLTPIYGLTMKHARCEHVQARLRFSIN
# Procedure: as §1
# [5] = target: T5, CYP2B6 (Homo sapiens, UniProt P20813); assay: CYP inhibition in human liver microsomes, CYP2B6; assay type: in vitro ADME; conditions: probe bupropion, substrate bupropion, read-out: CYP2B6 Inh %
# T5 construct: incubated with human liver microsomes; tissue Eurofins (contract protocol) ITEMG232; host or cells: human liver microsomes
# T5 sequence (P20813 1-491): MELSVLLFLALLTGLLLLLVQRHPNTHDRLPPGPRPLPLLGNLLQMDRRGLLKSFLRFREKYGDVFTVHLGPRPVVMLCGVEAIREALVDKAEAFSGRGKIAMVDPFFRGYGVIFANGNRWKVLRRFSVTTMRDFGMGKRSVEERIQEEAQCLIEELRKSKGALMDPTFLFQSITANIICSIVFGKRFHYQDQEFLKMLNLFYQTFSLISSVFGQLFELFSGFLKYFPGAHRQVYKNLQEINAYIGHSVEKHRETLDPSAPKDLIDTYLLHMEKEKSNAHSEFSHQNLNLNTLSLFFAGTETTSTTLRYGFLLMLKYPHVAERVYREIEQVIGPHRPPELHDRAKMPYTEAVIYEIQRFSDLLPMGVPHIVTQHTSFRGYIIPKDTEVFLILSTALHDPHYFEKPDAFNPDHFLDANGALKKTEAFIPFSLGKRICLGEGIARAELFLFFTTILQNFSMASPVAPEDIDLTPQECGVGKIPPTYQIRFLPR
# Procedure: as §1
# [6] = target: T6, CYP2C9 (Homo sapiens, UniProt P11712); assay: CYP inhibition in human liver microsomes, CYP2C9; assay type: in vitro ADME; conditions: probe diclofenac, substrate diclofenac, read-out: CYP2C9 Inh %
# T6 construct: incubated with human liver microsomes; tissue Eurofins (contract protocol) ITEMG232; host or cells: human liver microsomes
# Procedure: as §1
# [7] = target: T7, CYP2C19 (Homo sapiens, UniProt P33261); assay: CYP inhibition in human liver microsomes, CYP2C19; assay type: in vitro ADME; conditions: probe omeprazole, substrate omeprazole, read-out: CYP2C19 Inh %
# T7 construct: incubated with human liver microsomes; tissue Eurofins (contract protocol) ITEMG232; host or cells: human liver microsomes
# Procedure: as §1
# [8] = test system: CYP3A4&5; assay: CYP inhibition in human liver microsomes, CYP3A4&5 (testosterone); assay type: in vitro ADME; conditions: probe testosterone, substrate testosterone, read-out: CYP3A4&5 testosterone Inh %
# Procedure: as §1
# [9] = target: T8, CYP2D6 (Homo sapiens, UniProt P10635); assay: CYP inhibition in human liver microsomes, CYP2D6; assay type: in vitro ADME; conditions: probe dextromethorphan, substrate dextromethorphan, read-out: CYP2D6 Inh %
# T8 construct: incubated with human liver microsomes; tissue Eurofins (contract protocol) ITEMG232; host or cells: human liver microsomes
# Procedure: as §1
# T8 sequence (P10635 whole entry): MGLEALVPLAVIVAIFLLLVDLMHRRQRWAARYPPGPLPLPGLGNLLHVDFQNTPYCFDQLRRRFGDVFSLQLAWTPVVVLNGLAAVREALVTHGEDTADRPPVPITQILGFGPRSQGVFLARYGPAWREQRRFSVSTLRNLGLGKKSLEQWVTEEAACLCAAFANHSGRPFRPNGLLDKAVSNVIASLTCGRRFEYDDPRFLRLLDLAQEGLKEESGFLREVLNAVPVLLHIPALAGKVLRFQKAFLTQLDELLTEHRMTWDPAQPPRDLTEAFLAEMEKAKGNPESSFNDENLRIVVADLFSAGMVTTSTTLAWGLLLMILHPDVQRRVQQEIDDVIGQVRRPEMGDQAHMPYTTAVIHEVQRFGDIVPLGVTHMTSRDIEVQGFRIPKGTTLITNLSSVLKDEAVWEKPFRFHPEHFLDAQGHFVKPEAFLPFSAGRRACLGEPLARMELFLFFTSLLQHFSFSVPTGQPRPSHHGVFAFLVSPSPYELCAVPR
# T3 sequence (P08684 whole entry): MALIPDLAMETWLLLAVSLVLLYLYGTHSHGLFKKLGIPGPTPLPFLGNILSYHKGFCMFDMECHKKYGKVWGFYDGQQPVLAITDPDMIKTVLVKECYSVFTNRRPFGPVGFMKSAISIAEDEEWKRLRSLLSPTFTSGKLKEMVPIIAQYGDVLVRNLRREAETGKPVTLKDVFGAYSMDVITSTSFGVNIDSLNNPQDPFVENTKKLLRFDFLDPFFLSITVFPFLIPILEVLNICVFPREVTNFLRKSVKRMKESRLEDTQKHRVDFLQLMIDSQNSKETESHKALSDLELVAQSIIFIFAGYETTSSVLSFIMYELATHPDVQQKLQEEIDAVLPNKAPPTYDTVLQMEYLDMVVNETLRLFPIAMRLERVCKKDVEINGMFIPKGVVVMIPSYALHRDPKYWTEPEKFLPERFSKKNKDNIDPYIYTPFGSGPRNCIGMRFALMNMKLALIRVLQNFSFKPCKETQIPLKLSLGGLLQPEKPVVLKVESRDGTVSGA
# T7 sequence (P33261 whole entry): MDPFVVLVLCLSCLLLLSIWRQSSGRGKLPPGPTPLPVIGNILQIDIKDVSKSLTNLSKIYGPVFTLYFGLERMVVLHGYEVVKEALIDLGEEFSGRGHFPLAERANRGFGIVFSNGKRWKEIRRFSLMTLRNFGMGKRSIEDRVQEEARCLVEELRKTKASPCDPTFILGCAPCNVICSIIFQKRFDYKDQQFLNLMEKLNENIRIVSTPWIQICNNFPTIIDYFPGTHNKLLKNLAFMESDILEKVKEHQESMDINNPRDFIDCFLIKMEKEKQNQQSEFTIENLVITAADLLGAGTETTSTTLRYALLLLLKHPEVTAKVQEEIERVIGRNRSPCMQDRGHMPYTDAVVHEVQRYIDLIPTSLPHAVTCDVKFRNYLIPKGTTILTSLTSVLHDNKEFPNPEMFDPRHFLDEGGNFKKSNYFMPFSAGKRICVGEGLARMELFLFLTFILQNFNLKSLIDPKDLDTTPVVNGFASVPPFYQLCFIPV
# T6 sequence (P11712 whole entry): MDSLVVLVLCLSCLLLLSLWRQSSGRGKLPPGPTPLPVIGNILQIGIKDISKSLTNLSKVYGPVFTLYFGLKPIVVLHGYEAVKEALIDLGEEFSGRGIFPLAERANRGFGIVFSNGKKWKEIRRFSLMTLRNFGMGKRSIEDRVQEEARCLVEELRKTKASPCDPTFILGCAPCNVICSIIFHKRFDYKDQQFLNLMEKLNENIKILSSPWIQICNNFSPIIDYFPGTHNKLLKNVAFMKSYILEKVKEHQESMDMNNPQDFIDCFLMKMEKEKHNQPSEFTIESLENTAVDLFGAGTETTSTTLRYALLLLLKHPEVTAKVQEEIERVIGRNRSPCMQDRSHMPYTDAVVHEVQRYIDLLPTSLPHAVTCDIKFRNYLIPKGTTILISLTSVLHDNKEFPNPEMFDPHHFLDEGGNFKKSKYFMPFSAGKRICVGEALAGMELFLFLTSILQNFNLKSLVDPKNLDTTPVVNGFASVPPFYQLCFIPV
inhibition at 10 µM [1],IC50 [2],inhibition at 10 µM [3],inhibition at 10 µM [4],inhibition at 10 µM [5],inhibition at 10 µM [6],inhibition at 10 µM [7],inhibition at 10 µM [8],inhibition at 10 µM [9],SMILES
37.5%,0.53 nM,~0%,2.5%,17.6%,58.9%,43%,13.5%,22.4%,"CCCCOC(=O)NS(=O)(=O)c1sc(CC(C)C)cc1-c1ccc(Cn2ccnc2C)cc1 [Example 1, Butyl (5-isobutyl-3-(4-((2-methyl-1H-imidazol-1-yl)methyl)phenyl)thiophen-2-yl)sulfonyl-carbamate]"
80.4%,,95.2%,90.9%,48.8%,,,94.2%,81.2%,"CCCCOC(=O)NS(=O)(=O)c1sc(CC(C)C)cc1-c1ccc(Cn2ccnc2)cc1 [Example C21, N-butyloxycarbonyl-3-(4-imidazol-1-ylmethylphenyl)-5-isobutylthiophene-2-sulfon-amide, reference compound]"
